In US20260258064A1 (SIRONAX LTD., priority 2023, published 2026):

Target: T1, SARM1 (50-724) (Homo sapiens, UniProt Q6SZW1)
T1 construct: Purified SARM1 (50-724) with a final concentration of 2 nM was pre-incubated with a test compound
T1 sequence (Q6SZW1 50-724): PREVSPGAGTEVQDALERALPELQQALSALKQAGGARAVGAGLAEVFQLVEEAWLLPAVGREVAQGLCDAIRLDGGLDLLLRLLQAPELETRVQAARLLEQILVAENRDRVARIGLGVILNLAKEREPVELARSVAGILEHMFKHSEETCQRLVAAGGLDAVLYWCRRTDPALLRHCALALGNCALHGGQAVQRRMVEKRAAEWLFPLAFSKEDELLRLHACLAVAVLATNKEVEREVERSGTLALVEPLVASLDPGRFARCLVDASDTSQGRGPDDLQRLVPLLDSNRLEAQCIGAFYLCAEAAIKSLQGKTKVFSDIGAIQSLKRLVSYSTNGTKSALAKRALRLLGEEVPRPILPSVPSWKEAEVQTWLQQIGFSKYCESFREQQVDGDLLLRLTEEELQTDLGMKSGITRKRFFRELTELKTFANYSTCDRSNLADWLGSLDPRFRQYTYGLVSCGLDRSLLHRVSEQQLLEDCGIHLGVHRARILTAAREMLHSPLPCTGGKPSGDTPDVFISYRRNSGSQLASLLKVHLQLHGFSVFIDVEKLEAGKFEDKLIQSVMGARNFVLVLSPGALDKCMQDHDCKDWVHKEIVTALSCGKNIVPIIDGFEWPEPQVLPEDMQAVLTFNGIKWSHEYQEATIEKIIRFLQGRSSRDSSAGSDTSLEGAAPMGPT
Experiment: SARM1 (50-724) enzymatic assay (LC-MS/MS)
Type: biochemical
Details: Purified SARM1 (50-724) 2 nM, NMN as activator, NAD+ as substrate, 1 h at room temperature, read-out: IC50 (SARM1 inhibitory activity)
How it was run: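 Reaction buffer was Dulbecco's PBS. Compound and 2 nM human SARM1 (50-724) were pre-incubated 15 min at room temperature, then […] NAD^+ and 200 µM NMN activator were added for 1 h at room temperature. Acetonitrile (70%) stop, LC-MS/MS read-out, IC50 values.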

Structure (SMILES)	IC50 [nM]
CS(=O)(=O)Cc1nnc(-c2nc3cc(C(F)(F)F)cc(F)c3[nH]2)n1-c1cccc(Cl)c1Cl [Compound 185, 2-(4-(2,3-dichlorophenyl)-5-((methylsulfonyl)methyl)-4H-1,2,4-triazol-3-yl)-4-fluoro-6-(trifluoromethyl)-1H-benzo[d]imidazole]	≤ 100
Cn1cc(-c2cccc(Cl)c2Cl)c(-c2nc3cc(Cl)c(Cl)cc3[nH]2)cc1=O [Compound 188, 4-(5,6-dichloro-1H-benzo[d]imidazol-2-yl)-5-(2,3-dichlorophenyl)-1-methylpyridin-2(1H)-one]	100 to 500
Fc1ccc(-n2cnnc2-c2nc3cc(C(F)(F)F)ccc3[nH]2)c(OC(F)(F)F)c1 [Compound 189, 2-(4-(4-fluoro-2-(trifluoromethoxy)phenyl)-4H-1,2,4-triazol-3-yl)-5-(trifluoromethyl)-1H-benzo[d]imidazole]	≤ 100
FC(F)(F)Oc1cnccc1-n1cnnc1-c1nc2cc(C(F)(F)F)ccc2[nH]1 [Compound 190]	≤ 100
CC1(c2ccc3[nH]c(-c4nncn4-c4cccc(F)c4Cl)nc3c2)CC(O)C1 (centres unmarked) [Compound 191, 3-(2-(4-(2-chloro-3-fluorophenyl)-4H-1,2,4-triazol-3-yl)-1H-benzo[d]imidazol-5-yl)-3-methylcyclobutan-1-ol]	≤ 100
CS(=N)(=O)Cc1nnc(-c2nc3cc(Cl)cc(F)c3[nH]2)n1-c1cccc(F)c1Cl (centres unmarked) [Compound 192, ((4-(2-chloro-3-fluorophenyl)-5-(5-chloro-7-fluoro-1H-benzo[d]imidazol-2-yl)-4H-1,2,4-triazol-3-yl)methyl)(imino)(methyl)-16-sulfanone]	≤ 100
CCS(=O)(=O)Cc1nnc(-c2nc3cc(Cl)cc(F)c3[nH]2)n1-c1cccc(F)c1Cl [Compound 193, 5-chloro-2-(4-(2-chloro-3-fluorophenyl)-5-((ethylsulfonyl)methyl)-4H-1,2,4-triazol-3-yl)-7-fluoro-1H-benzo[d]imidazole]	≤ 100
O=S(=O)(Cc1nnc(-c2nc3cc(Cl)cc(F)c3[nH]2)n1-c1cccc(F)c1Cl)C1CC1 [Compound 194, 5-chloro-2-(4-(2-chloro-3-fluorophenyl)-5-((cyclopropylsulfonyl)methyl)-4H-1,2,4-triazol-3-yl)-7-fluoro-1H-benzo[d]imidazole]	≤ 100
O=S1(=O)Cc2ccc3[nH]c(-c4nncn4-c4cccc(F)c4Cl)nc3c2C1 [Compound 198, 2-(4-(2-chloro-3-fluorophenyl)-4H-1,2,4-triazol-3-yl)-6,8-dihydro-3H-thieno[3',4':3,4]benzo[1,2-d]imidazole 7,7-dioxide]	> 1000
NC(=O)Cn1cc(-c2cccc(F)c2Cl)c(-c2nc3cc(C(F)(F)F)ccc3[nH]2)cc1=O [Compound 199, 2-(5-(2-chloro-3-fluorophenyl)-2-oxo-4-(5-(trifluoromethyl)-1H-benzo[d]imidazol-2-yl)pyridin-1(2H)-yl)acetamide]	≤ 100
Fc1cc(C(F)(F)F)cc2nc(-c3nncn3-c3cc(C(F)F)ccc3Cl)[nH]c12 [Compound 200, 2-(4-(2-chloro-5-(difluoromethyl)phenyl)-4H-1,2,4-triazol-3-yl)-7-fluoro-5-(trifluoromethyl)-1H-benzo[d]imidazole]	≤ 100
O=S1(=O)CCN(c2ccc(Cl)c(-n3cnnc3-c3nc4cc(C(F)(F)F)ccc4[nH]3)n2)CC1 [Compound 201, 4-(5-chloro-6-(3-(5-(trifluoromethyl)-1H-benzo[d]imidazol-2-yl)-4H-1,2,4-triazol-4-yl)pyridin-2-yl)thiomorpholine 1,1-dioxide]	≤ 100
CN1CCC(n2cnnc2-c2nc3cc(C(F)(F)F)ccc3[nH]2)C1 (centres unmarked) [Compound 202, 2-(4-(1-methylpyrrolidin-3-yl)-4H-1,2,4-triazol-3-yl)-5-(trifluoromethyl)-1H-benzo[d]imidazole]	> 1000
CS(=O)(=O)Cc1nnc(-c2nc3cc(C4(F)CC4)cc(F)c3[nH]2)n1-c1cccc(F)c1Cl [Compound 203, 2-(4-(2-chloro-3-fluorophenyl)-5-((methylsulfonyl)methyl)-4H-1,2,4-triazol-3-yl)-7-fluoro-5-(1-fluorocyclopropyl)-1H-benzo[d]imidazole]	≤ 100
CC(C#N)(CO)c1ccc2[nH]c(-c3nncn3-c3cccc(F)c3Cl)nc2c1 (centres unmarked) [Compound 204, 2-(2-(4-(2-chloro-3-fluorophenyl)-4H-1,2,4-triazol-3-yl)-1H-benzo[d]imidazol-5-yl)-3-hydroxy-2-methylpropanenitrile]	≤ 100
CNC(=O)c1cc(F)c(Cl)c(-n2cnnc2-c2nc3cc(C(F)(F)F)cc(F)c3[nH]2)c1 [Compound 205, 4-chloro-3-fluoro-5-(3-(7-fluoro-5-(trifluoromethyl)-1H-benzo[d]imidazol-2-yl)-4H-1,2,4-triazol-4-yl)-N-methylbenzamide]	≤ 100
Oc1cc(F)c(Cl)c(-n2cnnc2-c2nc3cc(C(F)(F)F)cc(F)c3[nH]2)c1 [Compound 206, 4-chloro-3-fluoro-5-(3-(7-fluoro-5-(trifluoromethyl)-1H-benzo[d]imidazol-2-yl)-4H-1,2,4-triazol-4-yl)phenol]	≤ 100
Oc1cc(F)c(Cl)c(-n2cnnc2-c2nc3cc(C(F)(F)F)ccc3[nH]2)c1 [Compound 207, 4-chloro-3-fluoro-5-(3-(5-(trifluoromethyl)-1H-benzo[d]imidazol-2-yl)-4H-1,2,4-triazol-4-yl)phenol]	≤ 100
CN1CCN(c2ccc(Cl)c(-n3cnnc3-c3nc4cc(C(F)(F)F)ccc4[nH]3)n2)CC1=O [Compound 208, 4-(5-chloro-6-(3-(5-(trifluoromethyl)-1H-benzo[d]imidazol-2-yl)-4H-1,2,4-triazol-4-yl)pyridin-2-yl)-1-methylpiperazin-2-one]	≤ 100
FC(F)(F)c1ccc2[nH]c(-c3nncn3-c3c(Cl)ccc4[nH]ncc34)nc2c1 [Compound 209, 5-chloro-4-(3-(5-(trifluoromethyl)-1H-benzo[d]imidazol-2-yl)-4H-1,2,4-triazol-4-yl)-1H-indazole]	≤ 100
COc1cc(-n2cnnc2-c2nc3cc(C(F)(F)F)ccc3[nH]2)c(OC(F)(F)F)cn1 [Compound 210, 2-(4-(2-methoxy-5-(trifluoromethoxy)pyridin-4-yl)-4H-1,2,4-triazol-3-yl)-5-(trifluoromethyl)-1H-benzo[d]imidazole]	≤ 100
NC(=O)c1cc(-n2cnnc2-c2nc3cc(C(F)(F)F)ccc3[nH]2)c(Cl)cn1 [Compound 211, 5-chloro-4-(3-(5-(trifluoromethyl)-1H-benzo[d]imidazol-2-yl)-4H-1,2,4-triazol-4-yl)picolinamide]	≤ 100
Fc1ccc(OC(F)(F)F)c(-n2cnnc2-c2nc3cc(C(F)(F)F)cc(F)c3[nH]2)c1 [Compound 213, 7-fluoro-2-(4-(5-fluoro-2-(trifluoromethoxy)phenyl)-4H-1,2,4-triazol-3-yl)-5-(trifluoromethyl)-1H-benzo[d]imidazole]	≤ 100
FC(F)C12CC(n3cnnc3-c3nc4cc(C(F)(F)F)ccc4[nH]3)(C1)C2 [Compound 214, 2-(4-(3-(difluoromethyl)bicyclo[1.1.1]pentan-1-yl)-4H-1,2,4-triazol-3-yl)-5-(trifluoromethyl)-1H-benzo[d]imidazole]	> 1000
FC(F)(Cl)Oc1cnccc1-n1cnnc1-c1nc2cc(C(F)(F)F)ccc2[nH]1 [Compound 215, 2-(4-(3-(chlorodifluoromethoxy)pyridin-4-yl)-4H-1,2,4-triazol-3-yl)-5-(trifluoromethyl)-1H-benzo[d]imidazole]	≤ 100
NC(=O)c1nc(Cl)c(-n2cnnc2-c2nc3cc(C(F)(F)F)cc(F)c3[nH]2)s1 [Compound 216, 4-chloro-5-(3-(7-fluoro-5-(trifluoromethyl)-1H-benzo[d]imidazol-2-yl)-4H-1,2,4-triazol-4-yl)thiazole-2-carboxamide]	100 to 500
CS(=O)(=O)c1ccc(OC(F)(F)F)c(-n2cnnc2-c2nc3cc(C(F)(F)F)cc(F)c3[nH]2)c1 [Compound 217, 7-fluoro-2-(4-(5-(methylsulfonyl)-2-(trifluoromethoxy)phenyl)-4H-1,2,4-triazol-3-yl)-5-(trifluoromethyl)-1H-benzo[d]imidazole]	≤ 100
Fc1cc(C(F)(F)F)cc2nc(-c3nncn3-c3cc(Cl)ncc3OC(F)(F)F)[nH]c12 [Compound 218, 2-(4-(2-chloro-5-(trifluoromethoxy)pyridin-4-yl)-4H-1,2,4-triazol-3-yl)-7-fluoro-5-(trifluoromethyl)-1H-benzo[d]imidazole]	≤ 100
CC(C)(C)Oc1cnccc1-n1cnnc1-c1nc2cc(C(F)(F)F)ccc2[nH]1 [Compound 219, 2-(4-(3-(tert-butoxy)pyridin-4-yl)-4H-1,2,4-triazol-3-yl)-5-(trifluoromethyl)-1H-benzo[d]imidazole]	100 to 500
